Data reported in US7402606B2, “Derivatives of 1-(oxoaminoacetyl) pentylcarbamate as cathepsin K inhibitors for the treatment of bone loss” (SmithKline Beecham Corporation, priority 2002, dated 2008).
pIC50: −log10 of the molar value.

molecular target: T1, human cathepsin K (Homo sapiens, UniProt P43235); assay: Cathepsin K inhibition assay, human recombinant enzyme, fluorogenic substrate Cbz-Phe-Arg-AMC; format: biochemical; settings: Table 1, human cathepsin K; read-out: h Cat K IC50
T1 construct: The proform of cathepsin K was converted to mature cathepsin K by brief exposure to pH 4; made in house; host or cells: baculovirus; Trichoplusia ni High Five cells (virus raised in Sf-9)
T1 sequence (P43235 115-329): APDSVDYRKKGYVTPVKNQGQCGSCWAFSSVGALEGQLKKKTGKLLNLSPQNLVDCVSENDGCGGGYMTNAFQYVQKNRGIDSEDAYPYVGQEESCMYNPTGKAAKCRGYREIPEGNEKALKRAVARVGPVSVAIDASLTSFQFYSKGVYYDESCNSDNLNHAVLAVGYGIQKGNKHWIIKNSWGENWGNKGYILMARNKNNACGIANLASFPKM
Method: All assays for cathepsin K were carried out with human and rat recombinant enzyme. Assays for cathepsins S ? V were also carried out with human recombinant enzyme. Assays for human cathepsins B, H, and L were carried out with enzyme, purchased from Athens Research and Technology, Inc., prepared from human liver tissue. […] A stock substrate solution of Cbz-Phe-Arg-AMC was prepared at a concentration of 50 mM in dimethyl sulfoxide. This substrate was diluted into the assay for a final substrate concentration of 10 μM in the rat cathepsin K, human cathepsin K, and human cathepsin B assays; a final substrate concentration of 5 μM in the human cathepsin L assay; and a final substrate concentration of 2 μM in the human cathepsin V assay.
All assays contained 10% dimethyl sulfoxide. […] All assays were conducted at 30° C. Product fluorescence (excitation at 360 nm; emission at 440 nm, (except cathepsin H which used excitation at 340 nm; emission at 420 nm)) was monitored with a PerSeptive Biosystems Cytofluor II fluorescence plate reader. Product progress curves were generated over 2.3 h monitoring the formation of 7-amino-4-methylcoumarin product (or β-naphthalamide for cathepsin H).
Human and rat Cathepsin K:
Two liters of Spodoptera frugiperda (Sf-9) cells (ATCC) were grown in Grace's Supplemented medium (Life Technologies) supplemented with 2 g/L glucose, 10% fetal bovine serum (HyClone) and 0.1% pluronic F-68 (Life Technologies). […] The cells continued to grow for 72 h post-infection, before the virus was harvested by centrifugation at 1400×g for 30 min.
One and one-half liters of Trichoplusia ni (T. ni) High Five (™) cells [JRH Biosciences, Woodland, Calif. […] The cells were grown for 24 h at 28° C., 50 RPM, and 50% dissolved oxygen. […] Media were separated from cells at a rate of 1 L/min using the Centritech 100 ™ continuous-flow centrifuge (DuPont) operating at 200×g.
Protein Purification: Media (human and rat) were filtered through a Whatman 3 filter, and then loaded onto a 25 mL. Poros HS II (26 mm×47 mm) cation exchange column equilibrated in 25 mM sodium acetate at pH 5.5 (equilibration buffer). The column was washed until the absorbance reached the baseline value, and then the protein was eluted with a linear gradient from 0-2 M sodium chloride in the equilibration buffer. Column fractions were analyzed by SDS-PAGE, N-terminal sequencing, and mass spectrometry. Fractions containing the proform of cathepsin K were pooled and frozen at −80° C. The proform was concentrated in an Amicon Centriprep 10 and fractionated with a Superdex 75 column (26 mm×600 mm, Pharmacia) equilibrated in 400 mM sodium chloride, 25 mM sodium acetate at pH 5.5.
Cathepsin K Activation: The proform of cathepsin K was converted to mature cathepsin K by brief exposure to pH 4 in the presence of 5 mM L-cysteine. Typically, 5 mM L-cysteine was added to 10 mL of approximately 1 mg/mL procathepsin K. One mL of this solution was diluted ten-fold into 450 mM sodium acetate at pH 4.0 containing 5 mM L-cysteine. This solution was reacted at 23° C. for 2 min before neutralization with 2 mL, 1.8 M sodium acetate at pH 6.0. The neutralized sample was added to the remaining 9 mL of procathepsin K. The mixture was incubated at 4° C. for 2-3 days. The activated cathepsin K was chromatographed on a Poros HS II column as described above.
Potential inhibitors were evaluated using the progress curve method. Assays were carried out in the presence of variable concentrations of test compound. Reactions were initiated by addition of buffered solutions of inhibitor and substrate to enzyme. Data analysis was conducted according to one of two procedures depending on the appearance of the progress curves in the presence of inhibitors. […] Ki values were calculated from IC50 values using equation 2 assuming a competitive model.

Compound	pIC50
CCCC[C@H](NC(=O)O[C@@H]1CN(C(=O)Cc2ccc(C(C)(C)C)cc2)CC1(C)C)C(=O)C(=O)N[C@H](C)c1ccccc1 [Example 25, (3S)-1-[(4-tert-Butylphenyl)acetyl]-4,4-dimethylpyrrolidinyl (1S)-1-(oxo{[(1R)-1-phenylethyl]amino}acetyl)pentylcarbamate]	7.00 to 8.00
CCCC[C@H](NC(=O)O[C@@H]1CN(C(=O)c2csc(-c3ccncc3)n2)CC1(C)C)C(=O)C(=O)N[C@H](C)c1ccccc1 [Example 26, (3S)-4,4-Dimethyl-1-{[2-(4-pyridinyl)-1,3-thiazol-4-yl]carbonyl}pyrrolidinyl (1S)-1-(oxo{[(1R)-1-phenylethyl]amino}acetyl)pentylcarbamate]	7.00 to 8.00
CCCC[C@H](NC(=O)O[C@@H]1CN(C(=O)c2c(-c3ccccc3)noc2C)CC1(C)C)C(=O)C(=O)N[C@H](C)c1ccccc1 [Example 27, (3S)-4,4-Dimethyl-1-[(5-methyl-3-phenyl-4-isoxazolyl)carbonyl]pyrrolidinyl (1S)-1-(oxo{[(1R)-1-phenylethyl]amino}acetyl)pentylcarbamate]	7.00 to 8.00
CCCC[C@H](NC(=O)O[C@@H]1CN(C(=O)c2cc3ccccc3n2C)CC1(C)C)C(=O)C(=O)N[C@H](C)c1ccccc1 [Example 28, (3S)-4,4-Dimethyl-1-[(1-methyl-1H-indol-2-yl)carbonyl]pyrrolidinyl (1S)-1-(oxo{[(1R)-1-phenylethyl]amino}acetyl)pentylcarbamate]	7.00 to 8.00
CCCC[C@H](NC(=O)O[C@@H]1CN(C(=O)c2cnc3ccccc3c2)CC1(C)C)C(=O)C(=O)N[C@H](C)c1ccccc1 [Example 29, (3S)-4,4-Dimethyl-(3-quinolinylcarbonyl)pyrrolidinyl 1-(oxo{[(1R)-1-phenylethyl]amino}acetyl)pentylcarbamate]	7.00 to 8.00
CCCC[C@H](NC(=O)O[C@@H]1CN(C(=O)Cc2ccc(-c3ccccc3)cc2)CC1(C)C)C(=O)C(=O)N[C@H](C)c1ccccc1 [Example 30, (3S)-1-([1,1′-Biphenyl]-4-ylacetyl)-4,4-dimethylpyrrolidinyl (1S)-1-(oxo {[(1R)-1-phenylethyl]amino}acetyl)pentylcarbamate]	7.00 to 8.00
CCCC[C@H](NC(=O)O[C@@H]1CN(C(=O)Cc2ccccc2Oc2ccccc2)CC1(C)C)C(=O)C(=O)N[C@H](C)c1ccccc1 [Example 31, (3S)-4,4-Dimethyl-1-[(2-phenoxyphenyl)acetyl]pyrrolidinyl (1S)-1-(oxo{[(1R)-1-phenylethyl]amino}acetyl)pentylcarbamate]	7.00 to 8.00
CCCC[C@H](NC(=O)O[C@@H]1CN(C(=O)c2cc3ccccc3[nH]2)CC1(C)C)C(=O)C(=O)N[C@H](C)c1ccccc1 [Example 32, (3S)-1-(1H-Indol-2-ylcarbonyl)-4,4-dimethylpyrrolidinyl (1S)-1-(oxo {[(1R)-1-phenylethyl]amino}acetyl)pentylcarbamate]	7.00 to 8.00
CCCCC(NC(=O)O[C@@H]1CN(C(=O)Cc2cccnc2)CC1(C)C)C(=O)C(=O)N[C@H](C)c1ccccc1 (stereo partly drawn) [Example 33, (3S)-4,4-Dimethyl-1-(3-pyridinylacetyl)pyrrolidinyl 1-(oxo{[(1R)-1-phenylethyl]amino}acetyl)pentylcarbamate]	7.00 to 8.00
CCCC[C@H](NC(=O)O[C@@H]1CN(C(=O)c2nc[nH]n2)CC1(C)C)C(=O)C(=O)N[C@H](C)c1ccccc1 [Example 34, (3S)-4,4-Dimethyl-1-(1H-1,2,4-triazol-3-ylcarbonyl)pyrrolidinyl (1S)-1-(oxo{[(1R)-1-phenylethyl]amino}acetyl)pentylcarbamate]	7.00 to 8.00
CCCC[C@H](NC(=O)O[C@@H]1CN(C(=O)Cc2cc(C)no2)CC1(C)C)C(=O)C(=O)N[C@H](C)c1ccccc1 [Example 35, (3S)-4,4-Dimethyl-1-[(3-methyl-5-isoxazolyl)acetyl]pyrrolidinyl (1S)-1-(oxo{[(1R)-1-phenylethyl]amino}acetyl)pentylcarbamate]	8.00 to 9.00
CCCC[C@H](NC(=O)O[C@@H]1CN(C(=O)c2n[nH]c3ccccc23)CC1(C)C)C(=O)C(=O)N[C@H](C)c1ccccc1 [Example 36, (3S)-1-(1H-Indazol-3-ylcarbonyl)-4,4-dimethylpyrrolidinyl (1S)-1-(oxo {[(1R)-1-phenylethyl]amino}acetyl)pentylcarbamate]	8.00 to 9.00
CCCC[C@H](NC(=O)O[C@@H]1CN(C(=O)c2csc(-c3snnc3C)n2)CC1(C)C)C(=O)C(=O)N[C@H](C)c1ccccc1 [Example 37, (3S)-4,4-Dimethyl-1-{[2-(4-methyl-1,2,3-thiadiazol-5-yl)-1,3-thiazol-4-yl]carbonyl}pyrrolidinyl (1S)-1-(oxo{[(1R)-1-phenylethyl]amino}acetyl)pentylcarbamate]	7.00 to 8.00
CCCC[C@H](NC(=O)O[C@@H]1CN(C(=O)Cc2csc(-c3cnccn3)n2)CC1(C)C)C(=O)C(=O)N[C@H](C)c1ccccc1 [Example 38, (3S)-4,4-Dimethyl-1-{[2-(2-pyrazinyl)-1,3-thiazol-4-yl]acetyl-}pyrrolidinyl (1S)-1-(oxo{[(1R)-1-phenylethyl]amino}acetyl)pentylcarbamate]	7.00 to 8.00
CCCC[C@H](NC(=O)O[C@@H]1CN(C(=O)Cc2ccc(F)cc2)CC1(C)C)C(=O)C(=O)N[C@H](C)c1ccccc1 [Example 39, (3S)-1-[(4-Fluorophenyl)acetyl]-4,4-dimethylpyrrolidinyl (1S)-1-(oxo{[(1R)-1-phenylethyl]amino}acetyl)pentylcarbamate]	7.00 to 8.00
CCCC[C@H](NC(=O)O[C@@H]1CN(C(=O)OCc2ccc(-c3ccccc3)cc2)CC1(C)C)C(=O)C(=O)N[C@H](C)c1ccccc1 [Example 40, [1,1′-biphenyl]-4-ylmethyl (4S)-3,3-dimethyl-4-[({[(1S)-1-(oxo{[(1R)-1-phenylethyl]amino}acetyl)pentyl]amino}carbonyl)oxy]-1-pyrrolidinecarboxylate]	8.00 to 9.00
CCCC[C@H](NC(=O)O[C@@H]1CN(C(=O)OCC2CCCO2)CC1(C)C)C(=O)C(=O)N[C@H](C)c1ccccc1 (stereo partly drawn) [Example 41, Tetrahydro-2-furanylmethyl (4S)-3,3-dimethyl-4-[({[(1S)-1-(oxo{[(1R)-1-phenylethyl]amino}acetyl)pentyl]amino}carbonyl)oxy]-1-pyrrolidinecarboxylate]	8.00 to 9.00
CCCC[C@H](NC(=O)O[C@@H]1CN(C(=O)OCc2ccsc2)CC1(C)C)C(=O)C(=O)N[C@H](C)c1ccccc1 [Example 42, 3-Thienylmethyl (4S)-3,3-dimethyl-4-[({[(1S)-1-(oxo {[(1R)-1-phenylethyl]amino}acetyl)pentyl]amino}carbonyl)oxy]-1-pyrrolidinecarboxylate]	7.00 to 8.00
CCCC[C@H](NC(=O)O[C@@H]1CN(C(=O)O[C@H]2CCOC2)CC1(C)C)C(=O)C(=O)N[C@H](C)c1ccccc1 [Example 43, (3S)-Tetrahydro-3-furanyl (4S)-3,3-dimethyl-4-[({[(1S)-1-(oxo{[(1R)-1-phenylethyl]amino}acetyl)pentyl]amino}carbonyl)oxy]-1-pyrrolidinecarboxylate]	7.00 to 8.00
CCCC[C@H](NC(=O)O[C@@H]1CN(C(=O)OCc2ccccc2)CC1(C)C)C(=O)C(=O)N[C@H](C)c1ccccc1 [Example 44, Benzyl (4S)-3,3-dimethyl-4-[({[(1S)-1-(oxo{[(1R)-1-phenylethyl]amino}acetyl)pentyl]amino}carbonyl)oxy]-1-pyrrolidinecarboxylate]	7.00 to 8.00
